Reference: patent US9738655B2, “Tetrahydroisoquinolines containing substituted azoles as factor XIa inhibitors” (BRISTOL-MYERS SQUIBB COMPANY, priority 2013, dated 2017)
Structures can show the parent of a compound that is named as a salt. Where two headings read alike, the source gives them in different places.

What was measured:
[1] = target: purified human plasma kallikrein (Homo sapiens (Human), UniProt P03952); assay: Plasma kallikrein enzyme inhibition assay (chromogenic substrate S-2302); format: biochemical
Sequence of purified human plasma kallikrein (P03952 391-638): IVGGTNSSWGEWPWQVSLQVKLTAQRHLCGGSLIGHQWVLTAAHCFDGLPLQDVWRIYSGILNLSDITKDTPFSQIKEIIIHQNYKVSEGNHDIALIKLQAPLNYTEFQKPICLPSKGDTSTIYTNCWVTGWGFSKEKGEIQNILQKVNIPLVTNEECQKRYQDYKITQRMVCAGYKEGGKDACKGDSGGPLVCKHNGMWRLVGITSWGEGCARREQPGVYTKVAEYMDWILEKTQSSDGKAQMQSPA
Sequence of purified human plasma kallikrein (P03952 20-390 partner): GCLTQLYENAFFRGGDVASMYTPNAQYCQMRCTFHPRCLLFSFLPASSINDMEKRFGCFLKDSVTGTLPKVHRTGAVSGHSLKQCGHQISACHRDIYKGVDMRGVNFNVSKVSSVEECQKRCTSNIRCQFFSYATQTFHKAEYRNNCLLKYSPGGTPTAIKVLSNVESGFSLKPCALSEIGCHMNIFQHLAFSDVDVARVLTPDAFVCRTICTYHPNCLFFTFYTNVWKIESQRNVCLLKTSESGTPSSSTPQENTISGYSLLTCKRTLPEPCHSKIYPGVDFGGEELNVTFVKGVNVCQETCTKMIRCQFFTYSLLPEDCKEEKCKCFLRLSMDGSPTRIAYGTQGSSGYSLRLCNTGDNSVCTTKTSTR
Experimental: The effectiveness of compounds of the present invention as inhibitors of the coagulation Factors XIa, VIIa, IXa, Xa, XIIa, plasma kallikrein or thrombin, can be determined using a relevant purified serine protease, respectively, and an appropriate synthetic substrate. The rate of hydrolysis of the chromogenic or fluorogenic substrate by the relevant serine protease was measured both in the absence and presence of compounds of the present invention. […] A decrease in the rate of absorbance or fluorescence change in the presence of inhibitor is indicative of enzyme inhibition. […] The results of this assay are expressed as the inhibitory constant, Ki.
Values of Ki were determined by allowing the protease to react with the substrate in the presence of the inhibitor.
The following relationships were used to calculate Ki values: (Vmax*S)/(Km+S); (vo−vs)/vs=I/(Ki(1+S/Km)) for a competitive inhibitor with one binding site; or vs/vo=A+((B−A)/1+((IC50/(I)n))); and Ki−IC50/((1+S/Km) for a competitive inhibitor where:

[2] = target: purified human Factor XIa (Homo sapiens (Human), UniProt P03951); assay: Factor XIa enzyme inhibition assay (chromogenic substrate S-2366); conditions: read-out: Factor XIa Ki
Sequence of purified human Factor XIa (P03951 388-625): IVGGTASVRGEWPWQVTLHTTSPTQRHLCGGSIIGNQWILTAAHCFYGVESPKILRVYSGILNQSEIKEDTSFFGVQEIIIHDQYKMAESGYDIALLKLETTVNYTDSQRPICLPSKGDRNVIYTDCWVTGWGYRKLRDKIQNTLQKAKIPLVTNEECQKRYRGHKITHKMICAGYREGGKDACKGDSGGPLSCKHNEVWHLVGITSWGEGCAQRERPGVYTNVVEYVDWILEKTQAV
Sequence of purified human Factor XIa (P03951 19-387 partner): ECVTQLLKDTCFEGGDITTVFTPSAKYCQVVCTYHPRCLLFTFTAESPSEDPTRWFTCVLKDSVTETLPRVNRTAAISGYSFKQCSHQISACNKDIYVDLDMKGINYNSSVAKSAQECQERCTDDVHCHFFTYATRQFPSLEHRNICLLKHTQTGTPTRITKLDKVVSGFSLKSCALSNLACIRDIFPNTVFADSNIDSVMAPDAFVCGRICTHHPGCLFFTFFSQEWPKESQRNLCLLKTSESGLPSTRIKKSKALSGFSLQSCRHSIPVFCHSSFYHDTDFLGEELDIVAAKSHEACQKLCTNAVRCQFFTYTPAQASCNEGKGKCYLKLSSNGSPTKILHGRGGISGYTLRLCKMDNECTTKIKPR

[3] = measured at 25° C. (no asterisk), TFA salt
[4] = measured at 25° C. (no asterisk)

SMILES | Ki ([1]; measured at 37° C. (*)) | Ki ([2]; measured at 25° C.) | Ki [1, 3] | Ki ([2]; measured at 25° C., TFA salt) | further results
O=C(O)c1ccc(NC(=O)C2c3cccc(N4CCN(CC(F)(F)F)CC4)c3CCN2C(=O)c2cn(-c3cccc(Cl)c3F)nn2)cc1 (centres unmarked) [Example 229, 4-(2-(1-(3-Chloro-2-fluorophenyl)-1H-1,2,3-triazole-4-carbonyl)-5-(4-(2,2,2-trifluoroethyl)piperazin-1-yl)-1,2,3,4-tetrahydroisoquinoline-1-carboxamido) benzoic acid, TFA salt] | 124 nM | < 5 nM |  |  | 
O=C(O)c1ccc(NC(=O)[C@@H]2c3cccc(N4CCN(CC(F)(F)F)CC4)c3CCN2C(=O)[C@H]2CC(c3cccc(Cl)c3F)=NO2)cc1 [Example 230, 4-((S)-2-((R)-3-(3-Chloro-2-fluorophenyl)-4,5-dihydroisoxazole-5-carbonyl)-5-(4-(2,2,2-trifluoroethyl)piperazin-1-yl)-1,2,3,4-tetrahydroisoquinoline-1-carboxamido)benzoic acid, 2 TFA salt] | 12.3 nM |  |  |  | Ki [2]: < 5 nM
O=C(O)c1ccc(NC(=O)[C@H]2c3cccc(N4CCN(CC(F)(F)F)CC4)c3CCN2C(=O)[C@H]2CC(c3cccc(Cl)c3F)=NO2)cc1 [Example 231, 4-((R)-2-((R)-3-(3-Chloro-2-fluorophenyl)-4,5-dihydroisoxazole-5-carbonyl)-5-(4-(2,2,2-trifluoroethyl)piperazin-1-yl)-1,2,3,4-tetrahydroisoquinoline-1-carboxamido)benzoic acid, 2 TFA salt] | 1290 nM | 136 nM |  |  | 
COC(=O)c1ccc(NC(=O)[C@@H]2c3cccc(N4CCN(C5COC5)CC4)c3CCN2C(=O)[C@H]2CC(c3cccc(Cl)c3F)=NO2)cc1 [Example 232, Methyl 4-((S)-2-((R)-3-(3-chloro-2-fluorophenyl)-4,5-dihydroisoxazole-5-carbonyl)-5-(4-(oxetan-3-yl)piperazin-1-yl)-1,2,3,4-tetrahydroisoquinoline-1-carboxamido)benzoate, 2 TFA salt] | 29.7 nM | 4130 nM |  |  | 
COC(=O)c1ccc(NC(=O)[C@H]2c3cccc(N4CCN(C5COC5)CC4)c3CCN2C(=O)[C@H]2CC(c3cccc(Cl)c3F)=NO2)cc1 [Example 233, Methyl 4-((R)-2-((R)-3-(3-chloro-2-fluorophenyl)-4,5-dihydroisoxazole-5-carbonyl)-5-(4-(oxetan-3-yl)piperazin-1-yl)-1,2,3,4-tetrahydroisoquinoline-1-carboxamido)benzoate, 2 TFA salt] | > 13000 nM | 5.45 nM |  |  | 
Cn1ncnc1-c1cccc2c1CCN(C(=O)c1cn(-c3cccc(Cl)c3F)nn1)C2C(=O)Nc1ccc(C(=O)O)cc1 (centres unmarked) [Example 245, 4-(2-(1-(3-Chloro-2-fluorophenyl)-1H-1,2,3-triazole-4-carbonyl)-5-(1-methyl-1H-1,2,4-triazol-5-yl)-1,2,3,4-tetrahydroisoquinoline-1-carboxamido)benzoic acid, TFA salt] | 68.2 nM | < 5 nM |  |  | 
Cn1cnc(-c2cccc3c2CCN(C(=O)c2cn(-c4cccc(Cl)c4F)nn2)C3C(=O)Nc2ccc(C(=O)O)cc2)c1 (centres unmarked) [Example 246, 4-(2-(1-(3-Chloro-2-fluorophenyl)-1H-1,2,3-triazole-4-carbonyl)-5-(1-methyl-1H-imidazol-4-yl)-1,2,3,4-tetrahydroisoquinoline-1-carboxamido)benzoic acid, TFA salt] | 29.7 nM | < 5 nM |  |  | 
O=C(O)c1ccc(NC(=O)C2c3cccc(-n4cnnc4)c3CCN2C(=O)c2cn(-c3cccc(Cl)c3F)nn2)cc1 (centres unmarked) [Example 249, 4-(2-(1-(3-Chloro-2-fluorophenyl)-1H-1,2,3-triazole-4-carbonyl)-5-(4H-1,2,4-triazol-4-yl)-1,2,3,4-tetrahydroisoquinoline-1-carboxamido)benzoic acid, TFA salt] | 20.4 nM | < 5 nM |  |  | 
Cc1ncn(-c2cccc3c2CCN(C(=O)[C@H]2CC(c4cccc(Cl)c4F)=NO2)[C@@H]3C(=O)Nc2ccc(C(=O)O)cc2)n1 [Example 250, 4-((S)-2-((R)-3-(3-Chloro-2-fluorophenyl)-4,5-dihydroisoxazole-5-carbonyl)-5-(3-methyl-1H-1,2,4-triazol-1-yl)-1,2,3,4-tetrahydroisoquinoline-1-carboxamido)benzoic acid, TFA salt] | 6.8 nM | < 5 nM |  |  | 
Cc1ncn(-c2cccc3c2CCN(C(=O)[C@H]2CC(c4cccc(Cl)c4F)=NO2)[C@H]3C(=O)Nc2ccc(C(=O)O)cc2)n1 [Example 251, 4-((R)-2-((R)-3-(3-Chloro-2-fluorophenyl)-4,5-dihydroisoxazole-5-carbonyl)-5-(3-methyl-1H-1,2,4-triazol-1-yl)-1,2,3,4-tetrahydroisoquinoline-1-carboxamido)benzoic acid, TFA salt] | 601 nM | 14.7 nM |  |  | 
COC1CCN(c2cccc3c2CCN(C(=O)C2CC(=O)N(c4cccc(Cl)c4F)C2)C3C(=O)Nc2ccc(C(=O)O)cc2)CC1 (centres unmarked) [Example 255, 4-(2-(1-(3-chloro-2-fluorophenyl)-5-oxopyrrolidine-3-carbonyl)-5-(4-methoxypiperidin-1-yl)-1,2,3,4-tetrahydroisoquinoline-1-carboxamido)benzoic acid, TFA salt] |  |  | 218 nM | 7.13 nM | 
COC1CCN(c2cccc3c2CCN(C(=O)C2CC(c4c(F)ccc(Cl)c4F)=NO2)C3C(=O)Nc2ccc(C(=O)O)cc2)CC1 (centres unmarked) [Example 256, 4-(2-(3-(3-chloro-2,6-difluorophenyl)-4,5-dihydroisoxazole-5-carbonyl)-5-(4-methoxypiperidin-1-yl)-1,2,3,4-tetrahydroisoquinoline-1-carboxamido)benzoic acid, TFA salt] |  |  | 198 nM | 12.5 nM | 
COC1CCN(c2cccc3c2CCN(C(=O)C2CC(c4c(F)ccc(Cl)c4F)=NO2)C3C(=O)Nc2ccc(C(=O)O)cc2)CC1 (centres unmarked) [Example 257, 4-(2-(3-(3-chloro-2,6-difluorophenyl)-4,5-dihydroisoxazole-5-carbonyl)-5-(4-methoxypiperidin-1-yl)-1,2,3,4-tetrahydroisoquinoline-1-carboxamido)benzoic acid, TFA salt] |  |  | 24 nM | < 5 nM | 
COC1CCN(c2cccc3c2CCN(C(=O)C2CC(=O)N(c4cccc(Cl)c4F)C2)C3C(=O)Nc2ccc(C(=O)O)cc2)CC1 (centres unmarked) [Example 260, 4-(2-(1-(3-chloro-2-fluorophenyl)-5-oxopyrrolidine-3-carbonyl)-5-(4-methoxypiperidin-1-yl)-1,2,3,4-tetrahydroisoquinoline-1-carboxamido)benzoic acid, TFA salt] |  |  | 4750 nM | 2460 nM | 
CC(C)(O)C1CCN(c2cccc3c2CCN(C(=O)C2CC(c4cccc(Cl)c4F)=NO2)C3C(=O)Nc2ccc(C(=O)O)cc2)CC1 (centres unmarked) [Example 262, 4-(2-(3-(3-chloro-2-fluorophenyl)-4,5-dihydroisoxazole-5-carbonyl)-5-(4-(2-hydroxypropan-2-yl)piperidin-1-yl)-1,2,3,4-tetrahydroisoquinoline-1-carboxamido)benzoic acid, TFA salt] |  |  | 4.36 nM | < 5 nM | 
CC(C)(O)C1CCN(c2cccc3c2CCN(C(=O)C2CC(c4cccc(Cl)c4F)=NO2)C3C(=O)Nc2ccc(C(=O)O)cc2)CC1 (centres unmarked) [Example 263, 4-(2-(3-(3-chloro-2-fluorophenyl)-4,5-dihydroisoxazole-5-carbonyl)-5-(4-(2-hydroxypropan-2-yl)piperidin-1-yl)-1,2,3,4-tetrahydroisoquinoline-1-carboxamido)benzoic acid, TFA salt] |  |  | 68.1 nM | 11.5 nM | 
COC1CCN(c2cccc3c2CCN(C(=O)C2(C)CC(c4cccc(Cl)c4F)=NO2)C3C(=O)Nc2ccc(C(=O)O)cc2)CC1 (centres unmarked) [Example 266, 4-(2-(3-(3-chloro-2-fluorophenyl)-5-methyl-4,5-dihydroisoxazole-5-carbonyl)-5-(4-methoxypiperidin-1-yl)-1,2,3,4-tetrahydroisoquinoline-1-carboxamido)benzoic acid, TFA salt] |  |  | 687 nM | 420 nM | 
COC1CCN(c2cccc3c2CCN(C(=O)C2(C)CC(c4cccc(Cl)c4F)=NO2)C3C(=O)Nc2ccc(C(=O)O)cc2)CC1 (centres unmarked) [Example 267, 4-(2-(3-(3-chloro-2-fluorophenyl)-5-methyl-4,5-dihydroisoxazole-5-carbonyl)-5-(4-methoxypiperidin-1-yl)-1,2,3,4-tetrahydroisoquinoline-1-carboxamido)benzoic acid, TFA salt] |  |  | 354 nM | 103 nM | 
COC1CCN(c2cccc3c2CCN(C(=O)c2cn(-c4cccc(Cl)c4F)cn2)[C@H]3C(=O)Nc2ccc(C(=O)O)cc2)CC1 [Example 272, (R)-4-(2-(1-(3-chloro-2-fluorophenyl)-1H-imidazole-4-carbonyl)-5-(4-methoxypiperidin-1-yl)-1,2,3,4-tetrahydroisoquinoline-1-carboxamido)benzoic acid, TFA salt] | > 6000 nM | 976 nM |  |  | 
COC1CCN(c2cccc3c2CCN(C(=O)c2cn(-c4cccc(Cl)c4F)cn2)[C@@H]3C(=O)Nc2ccc(C(=O)O)cc2)CC1 [Example 273, (S)-4-(2-(1-(3-chloro-2-fluorophenyl)-1H-imidazole-4-carbonyl)-5-(4-methoxypiperidin-1-yl)-1,2,3,4-tetrahydroisoquinoline-1-carboxamide)benzoic acid, TFA salt] |  | < 5 nM |  |  | Ki [1, 4]: 7.65 nM
COC1CCN(c2cccc3c2CCN(C(=O)c2cnn(-c4cccc(Cl)c4F)c2N)[C@@H]3C(=O)Nc2ccc(C(=O)O)cc2)CC1 [Example 285, (S)-4-(2-(5-amino-1-(3-chloro-2-fluorophenyl)-1H-pyrazole-4-carbonyl)-5-(4-methoxypiperidin-1-yl)-1,2,3,4-tetrahydroisoquinoline-1-carboxamido)benzoic acid, TFA salt] |  | < 5 nM |  |  | Ki [1, 4]: 19.8 nM
COC1CCN(c2cccc3c2CCN(C(=O)c2cnn(-c4cccc(Cl)c4F)c2N)[C@H]3C(=O)Nc2ccc(C(=O)O)cc2)CC1 [Example 286, (R)-4-(2-(5-amino-1-(3-chloro-2-fluorophenyl)-1H-pyrazole-4-carbonyl)-5-(4-methoxypiperidin-1-yl)-1,2,3,4-tetrahydroisoquinoline-1-carboxamido)benzoic acid, TFA salt] |  | 266 nM |  |  | Ki [1, 4]: 3290 nM
